US20060199214A1, “Incorporation of modified nucleotides by archaeon DNA polymerases and related methods” (priority 1999, published 2006)

Legend:
[1] = target: herpes virus type 2 (HSV-2) DNA polymerase (Human herpesvirus 2, UniProt P89453); conditions: Reid, et al.; cited from earlier work
[2] = target: T1, 9° N™ (exo-)/A485L DNA polymerase (Thermococcus sp., UniProt Q56366, A485L/D141A/E143A); assay type: biochemical, Thermococcus sp. 9° N-7
T1 construct: made in house
Description: (§1) The 2X cocktail was split in half and 9° N™ (exo-)/A485L DNA polymerase or Thermo Sequenase™ was added to a final concentration of 0.04 U/μl. […] Reactions were thermal cycled as follows: • 94° C. 5 minutes • 25 cycles at: • 94° C. 30 seconds • 55° C. 30 seconds • 72° C. 30 seconds • 72° C. 7 minutes

[3] = target: human cytomegalovirus (HCMV) DNA polymerase (Human cytomegalovirus, UniProt P08546); conditions: Reid, et al.; cited from earlier work
[4] = target: T2, Vent® (exo-)/A488L DNA polymerase (Thermococcus litoralis, UniProt P30317, A488L/D141A/DEL1082-1471/DEL495-1032/E143A); assay type: biochemical; conditions: Vent (exo-)/A488L vs Vent (exo-); FIG. 6
T2 construct: made in house

[5] = target: human DNA polymerase alpha (Homo sapiens, UniProt P09884); conditions: Reid, et al.; cited from earlier work
[6] = test system: Thermo Sequenase™ DNA polymerase; test: Titration assay of chain terminator incorporation by Thermo Sequenase; assay type: biochemical; conditions: FIG. 9
Description: Samples were then heated at 72° C. for 3 minutes and separated on a QuickPoint DNA sequencing gel (NOVEX, San Diego, Calif.) run at 1200 volts. The gel was fixed by soaking in 10% acetic acid/10% ethanol, dried, and polymerization products visualized by autoradiography.
In a related experiment dye-acyclo-CTP incorporation by the analogous […] variant was evaluated.
as §1

T1 sequence (Q56366 whole entry D141A/E143A/A485L): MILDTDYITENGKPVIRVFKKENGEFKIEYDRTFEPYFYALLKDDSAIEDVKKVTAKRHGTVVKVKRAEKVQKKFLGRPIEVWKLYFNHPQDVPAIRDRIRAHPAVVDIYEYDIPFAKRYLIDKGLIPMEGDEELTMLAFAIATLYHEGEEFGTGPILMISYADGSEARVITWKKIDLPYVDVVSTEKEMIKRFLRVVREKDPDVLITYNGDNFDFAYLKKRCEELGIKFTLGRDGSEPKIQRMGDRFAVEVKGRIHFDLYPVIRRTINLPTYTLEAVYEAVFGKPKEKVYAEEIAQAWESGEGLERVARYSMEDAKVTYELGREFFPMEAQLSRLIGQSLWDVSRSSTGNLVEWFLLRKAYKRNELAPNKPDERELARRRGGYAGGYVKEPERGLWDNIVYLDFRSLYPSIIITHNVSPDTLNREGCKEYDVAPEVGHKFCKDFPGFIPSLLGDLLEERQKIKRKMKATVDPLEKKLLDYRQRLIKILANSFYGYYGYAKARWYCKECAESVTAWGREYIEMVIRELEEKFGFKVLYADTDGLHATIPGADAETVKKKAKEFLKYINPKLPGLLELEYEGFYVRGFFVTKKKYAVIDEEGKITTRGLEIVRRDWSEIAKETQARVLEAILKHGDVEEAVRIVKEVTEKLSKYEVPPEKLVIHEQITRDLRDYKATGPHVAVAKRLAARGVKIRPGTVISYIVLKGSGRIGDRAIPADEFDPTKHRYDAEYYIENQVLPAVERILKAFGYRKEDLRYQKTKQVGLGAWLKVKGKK
Sequence of human DNA polymerase alpha (P09884 whole entry): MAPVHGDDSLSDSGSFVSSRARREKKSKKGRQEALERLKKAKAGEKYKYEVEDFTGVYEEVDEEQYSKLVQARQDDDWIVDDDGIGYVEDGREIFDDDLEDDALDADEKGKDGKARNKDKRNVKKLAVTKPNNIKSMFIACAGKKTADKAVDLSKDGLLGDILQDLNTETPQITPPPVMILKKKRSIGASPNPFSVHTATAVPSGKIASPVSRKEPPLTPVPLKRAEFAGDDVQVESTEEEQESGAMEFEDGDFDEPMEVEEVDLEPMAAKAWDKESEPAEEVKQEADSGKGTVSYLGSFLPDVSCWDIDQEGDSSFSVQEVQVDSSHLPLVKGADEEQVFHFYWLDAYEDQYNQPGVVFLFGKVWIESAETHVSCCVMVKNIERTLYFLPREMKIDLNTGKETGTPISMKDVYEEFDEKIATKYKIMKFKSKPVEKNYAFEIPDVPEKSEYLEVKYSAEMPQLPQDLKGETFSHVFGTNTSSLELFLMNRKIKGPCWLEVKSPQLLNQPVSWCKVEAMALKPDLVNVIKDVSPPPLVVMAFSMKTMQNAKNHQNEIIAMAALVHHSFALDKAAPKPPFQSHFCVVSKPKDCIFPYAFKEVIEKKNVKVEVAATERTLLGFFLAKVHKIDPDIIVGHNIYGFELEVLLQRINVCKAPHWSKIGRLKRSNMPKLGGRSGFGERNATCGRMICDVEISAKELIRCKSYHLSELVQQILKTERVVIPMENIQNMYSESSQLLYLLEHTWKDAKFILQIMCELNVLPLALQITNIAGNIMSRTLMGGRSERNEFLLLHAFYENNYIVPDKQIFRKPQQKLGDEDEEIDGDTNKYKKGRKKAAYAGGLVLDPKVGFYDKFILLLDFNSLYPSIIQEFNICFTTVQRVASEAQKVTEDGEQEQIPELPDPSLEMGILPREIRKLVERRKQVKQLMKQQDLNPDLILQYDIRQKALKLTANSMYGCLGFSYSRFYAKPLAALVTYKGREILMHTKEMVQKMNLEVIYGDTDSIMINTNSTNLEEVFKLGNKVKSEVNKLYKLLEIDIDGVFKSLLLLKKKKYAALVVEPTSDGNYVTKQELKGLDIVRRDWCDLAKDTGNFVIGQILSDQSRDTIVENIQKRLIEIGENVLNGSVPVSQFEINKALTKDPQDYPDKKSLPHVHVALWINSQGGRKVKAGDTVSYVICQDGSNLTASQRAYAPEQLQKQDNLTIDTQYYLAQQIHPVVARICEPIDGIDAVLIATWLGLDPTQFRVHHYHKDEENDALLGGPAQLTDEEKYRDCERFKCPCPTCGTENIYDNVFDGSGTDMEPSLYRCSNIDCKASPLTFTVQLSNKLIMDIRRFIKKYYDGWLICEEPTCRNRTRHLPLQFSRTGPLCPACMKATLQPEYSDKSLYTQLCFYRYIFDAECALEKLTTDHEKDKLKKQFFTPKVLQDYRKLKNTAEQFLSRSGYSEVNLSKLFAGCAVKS
Sequence of human DNA polymerase alpha (Q14181 whole entry partner): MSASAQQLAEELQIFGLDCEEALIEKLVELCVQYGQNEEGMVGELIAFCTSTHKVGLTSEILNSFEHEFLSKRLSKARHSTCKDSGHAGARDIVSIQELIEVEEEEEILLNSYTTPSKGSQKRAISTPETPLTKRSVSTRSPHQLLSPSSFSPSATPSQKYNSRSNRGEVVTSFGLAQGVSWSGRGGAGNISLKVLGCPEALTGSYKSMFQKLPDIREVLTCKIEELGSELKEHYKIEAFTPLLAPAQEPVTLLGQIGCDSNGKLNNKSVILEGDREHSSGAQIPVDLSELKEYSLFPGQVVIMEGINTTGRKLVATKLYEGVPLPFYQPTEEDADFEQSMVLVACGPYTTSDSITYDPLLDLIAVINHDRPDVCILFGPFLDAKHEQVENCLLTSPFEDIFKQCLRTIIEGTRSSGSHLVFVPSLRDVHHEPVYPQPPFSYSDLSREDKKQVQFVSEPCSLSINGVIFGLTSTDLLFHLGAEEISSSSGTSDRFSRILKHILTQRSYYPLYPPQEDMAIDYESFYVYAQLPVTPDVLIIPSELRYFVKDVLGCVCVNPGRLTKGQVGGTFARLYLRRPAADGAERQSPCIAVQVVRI
Sequence of human DNA polymerase alpha (P49642 whole entry partner): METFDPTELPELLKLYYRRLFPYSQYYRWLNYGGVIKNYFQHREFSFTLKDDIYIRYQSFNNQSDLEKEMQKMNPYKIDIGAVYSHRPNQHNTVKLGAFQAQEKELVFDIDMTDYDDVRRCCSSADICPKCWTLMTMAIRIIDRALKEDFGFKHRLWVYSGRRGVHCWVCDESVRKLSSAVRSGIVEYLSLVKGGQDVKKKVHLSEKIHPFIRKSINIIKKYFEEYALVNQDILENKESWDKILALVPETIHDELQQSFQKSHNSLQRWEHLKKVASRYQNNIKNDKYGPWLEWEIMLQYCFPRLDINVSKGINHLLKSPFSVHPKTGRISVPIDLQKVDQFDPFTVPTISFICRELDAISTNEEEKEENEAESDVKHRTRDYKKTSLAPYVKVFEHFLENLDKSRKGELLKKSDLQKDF
Sequence of human DNA polymerase alpha (P49643 whole entry partner): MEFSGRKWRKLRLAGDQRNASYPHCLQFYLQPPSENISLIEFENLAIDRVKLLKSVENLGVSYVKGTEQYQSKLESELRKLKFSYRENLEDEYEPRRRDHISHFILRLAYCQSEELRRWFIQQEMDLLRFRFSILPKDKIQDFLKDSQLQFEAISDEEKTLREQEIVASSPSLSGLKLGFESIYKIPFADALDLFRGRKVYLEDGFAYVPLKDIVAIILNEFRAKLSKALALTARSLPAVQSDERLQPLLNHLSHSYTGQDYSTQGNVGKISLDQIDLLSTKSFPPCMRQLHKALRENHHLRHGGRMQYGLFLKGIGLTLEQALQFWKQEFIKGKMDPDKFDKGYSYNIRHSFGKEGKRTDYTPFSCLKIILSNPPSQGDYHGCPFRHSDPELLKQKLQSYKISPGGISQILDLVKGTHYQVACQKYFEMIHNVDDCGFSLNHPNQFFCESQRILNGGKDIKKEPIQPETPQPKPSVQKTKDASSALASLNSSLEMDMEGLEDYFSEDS
Sequence of herpes virus type 2 (HSV-2) DNA polymerase (P89453 whole entry): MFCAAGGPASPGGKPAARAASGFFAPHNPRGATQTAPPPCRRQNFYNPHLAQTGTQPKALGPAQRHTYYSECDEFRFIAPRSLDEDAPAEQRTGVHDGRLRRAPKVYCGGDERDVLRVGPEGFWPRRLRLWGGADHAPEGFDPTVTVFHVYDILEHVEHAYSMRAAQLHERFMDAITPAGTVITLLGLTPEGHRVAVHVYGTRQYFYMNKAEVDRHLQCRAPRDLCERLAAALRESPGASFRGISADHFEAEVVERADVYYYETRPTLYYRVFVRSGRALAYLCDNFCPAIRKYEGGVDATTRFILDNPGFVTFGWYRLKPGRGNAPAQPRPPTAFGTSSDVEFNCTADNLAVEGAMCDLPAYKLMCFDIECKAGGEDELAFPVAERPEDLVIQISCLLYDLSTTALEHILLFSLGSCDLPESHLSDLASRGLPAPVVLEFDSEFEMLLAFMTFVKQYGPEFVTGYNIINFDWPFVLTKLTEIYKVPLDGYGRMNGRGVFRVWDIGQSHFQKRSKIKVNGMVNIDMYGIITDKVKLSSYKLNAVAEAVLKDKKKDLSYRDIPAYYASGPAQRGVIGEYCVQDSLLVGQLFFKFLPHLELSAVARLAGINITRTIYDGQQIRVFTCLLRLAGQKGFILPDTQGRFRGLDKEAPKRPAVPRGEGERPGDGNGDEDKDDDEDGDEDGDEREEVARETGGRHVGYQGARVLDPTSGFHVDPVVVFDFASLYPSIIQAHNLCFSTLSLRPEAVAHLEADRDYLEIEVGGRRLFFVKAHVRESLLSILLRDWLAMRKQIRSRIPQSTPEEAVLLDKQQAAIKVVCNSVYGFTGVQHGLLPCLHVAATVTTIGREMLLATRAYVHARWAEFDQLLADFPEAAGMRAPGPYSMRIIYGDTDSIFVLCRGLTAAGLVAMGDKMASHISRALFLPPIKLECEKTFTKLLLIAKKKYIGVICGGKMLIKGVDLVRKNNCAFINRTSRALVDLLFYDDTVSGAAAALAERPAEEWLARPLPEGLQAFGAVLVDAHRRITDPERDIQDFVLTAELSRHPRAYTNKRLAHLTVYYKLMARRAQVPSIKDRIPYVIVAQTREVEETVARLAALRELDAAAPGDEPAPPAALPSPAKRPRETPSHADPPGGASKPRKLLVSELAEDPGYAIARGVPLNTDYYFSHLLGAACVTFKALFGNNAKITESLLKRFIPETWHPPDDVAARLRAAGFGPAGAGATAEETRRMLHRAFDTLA

Nc1nc2c(ncn2COCCOP(=O)(O)OP(=O)(O)OP(=O)(O)O)c(=O)[nH]1 [acyclo-GTP]
Preference for insertion, acyclo-GTP versus ddGTP [1]: preference for insertion of acyclo-GTP over ddGTP
Preference for acyclo-GTP over ddGTP ([2]; 9°N (exo-)/A485L, FIG. 9): approximately 9 fold
Preference for insertion, acyclo-GTP versus ddGTP [3]: preference for insertion of acyclo-GTP over ddGTP

Nc1ccn([C@H]2CC[C@@H](COP(=O)(O)OP(=O)(O)OP(=O)(O)O)O2)c(=O)n1 [ddCTP]
Enhancement of incorporation, variant compared to parental enzyme [4]: about 10 fold
Enhancement of incorporation, variant compared to parental enzyme ([2]; 9°N (exo-)/A485L vs 9°N (exo-), FIG. 6): about 10 fold

Nc1nc2c(ncn2[C@H]2CC[C@@H](COP(=O)(O)OP(=O)(O)OP(=O)(O)O)O2)c(=O)[nH]1 [ddGTP]
Preference for insertion, ddGTP versus acyclo-GTP [5]: strong preference
Preference for ddGTP over acyclo-GTP [6]: ~27 fold
